The numbers were not newly measured in US9237750B2, “Ornidazole and related compounds for use as herbicides” (RAMOT AT TEL-AVIV UNIVERSITY LTD., priority 2012, dated 2016), which cites them from elsewhere.

The data set relates to ferredoxin-linked NADP+ reduction. The following applies: photosystem II non-operative, ascorbate as electron source, broken spinach chloroplasts, DCPIP; cited from earlier work.

In the case of `Cc1ncc([N+](=O)[O-])n1CCO` [Metronidazole, 1-β-hydroxyethyl-2-methyl-5-nitroimidazole], the “inhibition of ferredoxin-linked NADP+ reduction” value is given as “potent inhibitor”.
